According to patent publication US12409181B2, “Treatment for aortic aneurysms” (THE REGENTS OF THE UNIVERSITY OF CALIFORNIA, priority 2019, dated 2025):
“Also recorded” adds a separate entry of the source.

How the values were obtained:
[1] = system: human aortic SMCs; assay: Western blots (VASP phosphorylation, JNK activation) and OxyBlot protein oxidation in human SMCs; assay type: cell-based
Experimental: Western Blotting. Following anesthesia with ketamine (100 mg/kg) and xylazine (10 mg/kg) by intraperitoneal injection, mice were exsanguinated and perfused with ice-cold phosphate-buffered saline (PBS) containing protease inhibitor cocktail (Calbiochem #539131). Aortas were excised, cleaned from surrounding tissue, and snap-frozen in liquid nitrogen within 15 min of euthanasia. Frozen aortas were pulverized and sonicated (3×10 sec) in ice-cold RIPA buffer (50 mM NaCl, 50 mM Tris-HCl, pH 8, 1% NP-40, 0.1% SDS, 0.5% sodium deoxycholate) supplemented with 1 mM NaF, 1 mM β-glycerolphosphate, and protease inhibitor cocktail. Western blots were developed with primary antibodies specific for PKG1 (1:1000, Cell Signaling Technology; 3248, […] (1:1000, Cell Signaling Technology; 3114), GAPDH (1:1000, Cell Signaling Technology; 2118), β-actin (1:5000, Santa Cruz Biotechnology; 47778), and JNK-phospho-Thr^183/Tyr^185 (1:1000, Cell Signaling Technology; 9251). Blots were developed and visualized with enhanced chemiluminescence using LI-COR Odyssey (with ImageStudio, V5) or with film in the linear range of exposure (with densitometry scanning using ImageJ (V1.51). Protein carbonyl groups (aldehydes and ketones) were detected using the OxyBlot™ Protein Oxidation Detection Kit (Millipore EMD; S7150). Unprocessed scans of blots are provided in the Source Data file.
SMC Culture and Adenovirus Infection. Murine aortic SMCs were isolated from the aortas of 8-12 week old wild type and PKG1^RQ/+ mice and were cultured in Smooth Muscle Basal Media (SmBM) containing 20% FBS, pyruvate, HEPES, L-glutamine, penicillin/streptomycin and growth factors (SmBM Bullet kit; CC-4149 from Lonza), as previously described.^69 Two independent cell isolates from wild type and PKG1^RQ mice were used at passage one. Human primary aortic SMCs were purchased from Lifeline Cell Technology (Frederick, MD, FC-0015) and cultured in VascuLife Basal Medium supplemented with recombinant epidermal growth factor, insulin, and fibroblast growth factor-b, ascorbic acid, L-glutamine, 20% FBS, gentamycin, and amphotericin (Vasculife SMC LifeFactors kit; LS-1040 from Lifeline Technologies). Human SMCs were used at passages 3-6. Adenovirus was generated using the ViraPower Adenoviral Expression System (Thermo Fisher).^67 Human SMCs were infected with virus expressing wild type or mutant human PKG1α (containing the R177Q mutation); the MOI was 3-10 and titrated to produce wild type and mutant kinase at 2-3 fold the level of endogenous PKG1 at 72 h post infection. […] For knock-down of NOX2 and NOX4, SMCs were infected with adenovirus expressing shNOX2 or shNOX4 oligomers (downstream of the U6 promoter) at an MOI of 100; H2O2 production and NADPH oxidase activity assays were performed 48 h later (as described below).

[2] = system: Prkg1^RQ/+ mice; assay: Aortic gene expression by quantitative RT-PCR after Cbi treatment; assay type: in vivo; details: 12 month-old Prkg1^RQ/+ mice, 1 mM Cbi in drinking water for 1 month
Experimental: (§1) Randomization and Drug Treatment of Mice. At the time of weaning, male and female litter mates were separated and randomly assigned to new cages. At the age of 6 months (aging studies) or 10-14 weeks (TAC studies), matched cages containing mice born within a three week period were randomly assigned to treatment versus vehicle groups. For aging studies, some mice received 1 mM trihistidyl-cobinamine (Cbi) in the drinking water, starting from the age of 6 months until 12 months. For gene expression studies, mice were treated with 1 mM Cbi for one month only, from 11-12 months of age. For TAC studies, some mice received 1 mg/ml N-acetylcysteine (NAC) in the drinking water starting 4 weeks before until 2 weeks after the surgery. The drugs were dissolved freshly each week and filter-sterilized; fluid intake was monitored weekly. The Cbi dose was calculated to be 50 mg/kg/d, and the NAC dose was 500 mg/kg/d. Aquohydroxyl-cobinamide was synthesized from cobalamine by removal of the 5,6-dimethyl-benzimidazol ring; trihistidyl-cobinamide was obtained by adding three molar equivalents of L-histidine to the aquohydroxyl cobinamide.^63 Purity of the drug was >95% by high-pressure liquid chromatography.
Quantitative RT-PCR. Aortas were dissected and snap-frozen as described above; they were pulverized and immersed in Trizol (Molecular Res. Center, TR118). Total RNA was isolated, reverse-transcribed using iScript cDNA synthesis kit (Bio-Rad), and PCR was performed using a MX3005P real-time PCR detection system with Brilliant II SYBR Green Mix (Agilent Technologies) as described.^67 All primers were intron-spanning (except for 18S rRNA), and were tested with serial cDNA dilutions. Relative changes in mRNA expression were analyzed using the comparative 2^−ΔΔCt method, with 18S rRNA and phosphoglycerate kinase-1 serving as internal controls.^68

[3] = system: Prkg1^RQ/+ mice; assay: Aging study: cobinamide in drinking water, Prkg1^RQ/+ mice; assay type: in vivo
[4] = biological target: T1, PKG1^RQ (Homo sapiens, UniProt Q13976, R177Q); assay: Kinase activity of purified PKG1^RQ; assay type: biochemical; details: purified enzyme
T1 construct: FLAG (N); made in house; host or cells: transiently transfected 293T cells (ATCC, CRL3216)
T1 sequence (Q13976 1-671 R177Q): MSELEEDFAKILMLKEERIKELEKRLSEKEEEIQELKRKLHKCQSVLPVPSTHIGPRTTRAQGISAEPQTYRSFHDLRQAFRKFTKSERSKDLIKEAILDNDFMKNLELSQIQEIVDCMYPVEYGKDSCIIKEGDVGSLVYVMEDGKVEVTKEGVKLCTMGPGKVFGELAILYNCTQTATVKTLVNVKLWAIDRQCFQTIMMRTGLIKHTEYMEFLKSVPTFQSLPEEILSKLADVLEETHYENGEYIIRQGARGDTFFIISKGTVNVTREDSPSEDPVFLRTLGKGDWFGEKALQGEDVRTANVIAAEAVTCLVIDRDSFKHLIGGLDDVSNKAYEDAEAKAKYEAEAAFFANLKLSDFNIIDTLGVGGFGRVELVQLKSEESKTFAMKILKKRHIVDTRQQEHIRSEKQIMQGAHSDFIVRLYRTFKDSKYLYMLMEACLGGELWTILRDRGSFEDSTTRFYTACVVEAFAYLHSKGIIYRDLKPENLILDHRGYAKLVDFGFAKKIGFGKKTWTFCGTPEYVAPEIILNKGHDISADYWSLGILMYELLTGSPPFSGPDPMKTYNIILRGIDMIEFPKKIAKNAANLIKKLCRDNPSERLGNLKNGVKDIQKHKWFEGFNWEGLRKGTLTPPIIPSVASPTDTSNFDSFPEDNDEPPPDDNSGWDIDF
Experimental: PKG1 Purification and Activity Assays. Wild type and mutant PKG1^RQ were expressed with N-terminal FLAG epitope tags in transiently-transfected 293T cells (ATCC, CRL3216), purified with anti-FLAG beads and eluted with FLAG peptide, and kinase activity assays were performed.^41 Kinase activity in SMC and aortic extracts was measured using an optimized peptide in the presence of 1.25 μM protein kinase inhibitor peptide (PKI) to inhibit cAMP-dependent protein kinase.^65 Assays were performed with [γ-^32PO4]ATP (1.3 Ci/mmol; 50 μM) in the presence and absence of 3 μM cGMP, and were linear with time and protein concentration. In some assays, the PKG-specific inhibitory peptide DT2 was included at 10 μM.

[5] = system: wild type mice; assay: Cobinamide treatment: effects and toxicity in mice; assay type: in vivo
Experimental: as §1

[6] = Prkg1^RQ/+ mice, 1 mM Cbi in drinking water from age 6 to 12 months

Substance: trihistidyl-cobinamide [Cbi]
- H2O2-induced JNK activation ([1]; human SMCs): decreased
- H2O2-induced protein oxidation ([1]; human SMCs): decreased
- protein oxidation in PKG1^RQ-expressing cells ([1]; human SMCs expressing PKG1^RQ): reduced protein oxidation
- Ctgf mRNA in aortas [2]: reduced all five transcripts
- Hif1a mRNA in aortas [2]: reaching levels similar to those observed in wild type mice
- Nox4 mRNA in aortas [2]: reduced all five transcripts
- Tgfb1 mRNA in aortas [2]: reduced all five transcripts
- Vegfa mRNA in aortas [2]: reaching levels similar to those observed in wild type mice
- PKG activity in aortic extracts after treatment of the mice ([3]; Cbi-treated mice): nor did Cbi treatment of the mice affect PKG activity
- prevention of age-related aortic pathology, including aortic dilation ([3]; Prkg1^RQ/+ mice): highly effective
- SMC apoptosis in aortas [3, 6]: reduced oxidative stress markers and SMC apoptosis in aortas of Prkg1^RQ/+ mice to values in WT mice
- SMC loss [3, 6]: completely prevented
- elastin fiber breaks [3, 6]: reduced elastin fiber breaks and media collagen content to levels in WT mice
- media collagen content [3, 6]: reduced elastin fiber breaks and media collagen content to levels in WT mice
- oxidative stress markers in aortas [3, 6]: reduced oxidative stress markers and SMC apoptosis in aortas of Prkg1^RQ/+ mice to values in WT mice; also recorded: reduced oxidative stress markers in the aorta
- aortic dilation ([3]; Prkg1^RQ/+ mice, 1 mM Cbi in drinking water from age 6 to 12 months, ultrasound): completely prevented
- amount of Cys^43-oxidized, cross-linked PKG1 dimer in aortas ([3]; wild type and Prkg1^RQ/+ mice): no effect
- activity of purified PKG1^RQ [4]: no effect
- serum homocysteine concentration ([5]; Cbi-treated mice): normal
- serum methylmalonic acid concentration ([5]; Cbi-treated mice): normal
- vitamin B12-dependent functions ([5]; Cbi-treated mice): did not affect
- toxicity ([5]; judged by normal weight, clinical appearance, blood counts, and liver and kidney function tests): no discernible toxicity
- effects in wild type mice ([5]; wild type mice, Cbi in drinking water): no significant effects
